Measured values from patent US20210170035A1, “METHOD OF TREATING CANCER BY TARGETING MYELOID-DERIVED SUPPRESSOR CELLS” (priority 2016, published 2021).

Legend:
[1] = tested on: F4/80+CD86+ : F4/80+CD206+ macrophages; assay: Ratio of M1 to M2 macrophages in 4T1 solid tumor; format: in vivo, balb/c mice; settings: tumor digestion at end of therapeutic study
Protocol: The ratio of M1 to M2 macrophages (F4/80+CD86+: F4/80+CD206+) was tested in groups of untreated control, FA-TLR7 agonist, FA-PI3K inhibitor, FA-Tubulysin and combination as well as competition groups.
As described in the previous methods part, after tumor digestion at the end of therapeutic study, isolated cells were stained by F4/80 macrophage marker and M1 (CD86), M2 (CD206) markers. Macrophages in a tumor environment have been considered as a mainly M2 macrophage function, which can support tumor growth and suppress the immune response. On the other hand, M1 macrophages have been considered to be able to eliminate tumor cells and stimulate an anti-cancer immune response. Therefore, to study the M1 to M2 macrophage ratio is very important for targeting FR-β positive TAMs/MDSCs. […] Therefore, it could be concluded that by targeting FR+ TAMs/MDSCs in 4T1 solid tumor, the three classes of FA-conjugated […] are able to convert immunosuppression M2 macrophages environment to an anti-cancer M1 macrophages environment, which would contribute to the slow growth of a tumor.

F4/80+ macrophages = assay: Intracellular staining of arginase on F4/80+ macrophages from 4T1 solid tumor; format: in vivo, balb/c mice; settings: tumor digestion at end of therapeutic study
Protocol: Intracellular arginase staining: Cell surface markers for TAMs/MDSCs were labeled following procedures mentioned previously. 0.1 μL fixable viability dye eFluor® 660 was added together with antibody cocktails. After washing with PBS, cells were fixed with 4% formaldehyde in 500 μL of PBS for 15 min at 4° C. Cells were spun down to remove fixing solution. Cells were washed two times with 500 μL washing buffer containing 0.1 M glycine and 0.05% sodium azide. After being spun down a final time, cells were added 1 mL permeabilization solution containing 0.1 M glycine, 0.05% sodium azide and 0.1% triton-100. Permeabilization was performed at room temperature for 5 min. Permeabilized cells were spun down at 1500 rpm for 1 min, and the cells were washed three times with 1 mL blocking buffer containing 0.05 M glycine, 0.05% sodium azide and 0.2% gelatin. Cells were then re-suspended in 1 mL blocking buffer at 4° C. overnight to block non-specific intracellular binding. Cells were then spun down at 1500 rpm for 1 min to remove the supernatant and another 100 μL blocking buffer containing 1 μL FITC-arginase was added. Cells were kept in the dark at 4° C. overnight. After being spun down at 1500 rpm for 1 min, cells were washed with 1 mL blocking buffer and were then ready for flow cytometry analysis (BD Accuri C6™ flow cytometer). […]

MDSCs (CD11b+Gr1+) = assay: MDSCs population (CD11b+Gr1+) in 4T1 solid tumor; format: in vivo, balb/c mice; settings: tumor digestion at end of therapeutic study
Protocol: The MDSCs population (CD11b+Gr1+) was tested in groups of untreated control, FA-TLR7 agonist, FA-PI3K inhibitor, FA-Tubulysin and combination as well as competition groups.
As described in previous methods part, after tumor digestion at the end of therapeutic study, isolated cells were stained by MDSCs markers CD11b+Gr1+, see FIG. 26.

SMILES: CCCCc1nc2c(N)nc3ccccc3c2n1CC(C)(C)OC(=O)OCCSSCC(NC(=O)CCC(NC(=O)c1ccc(NCc2cnc3nc(N)[nH]c(=O)c3n2)cc1)C(=O)O)C(=O)O (stereo not drawn) [FA-TLR7 agonist]
- M1 to M2 macrophages ratio vs untreated control [1]: dramatically increased
- arginase+F4/80+ cell population in live cells vs untreated control (F4/80+ macrophages): dramatically decreased
- anti-cancer effect on co-injection of 200 times more competitor (FA-PEG-NH2) (4T1 solid tumor; competition group, same schedule): can be competed
- tumor growth, therapeutic study (4T1 solid tumor; i.v. 5 days per week for 2 weeks from day 6, 10 nmol FA-TLR7 agonist, 10 nmol FA-PI3K inhibitor, 30 nmol FA-tubulysin): tumor growth was slowed down
- tumor growth, dose study (4T1 solid tumor; i.v. 5 days per week for 2 weeks from day 6, especially in groups of 5 nmol, 10 nmol and 20 nmol): tumor growth was slowed down
- MDSCs population (CD11b+Gr1+) vs untreated control (MDSCs (CD11b+Gr1+)): dramatically decreased MDSCs population
